Results: patent publication US5821252A, “Method of blocking nerve conduction by treatment with branched-chain esters of 2-[4-(2-piperidine-ethoxy)-benzoyl]-benzoic acid and pharmaceutically acceptable salts thereof” (priority 1988, dated 1998)
Where two headings read alike, the source gives them in different places.

Legend:
[1] = test system: colonic motility; assay: Motility of the large bowel (colonic motor complex) in conscious dogs; assay type: in vivo, dog
Description: Male dogs (THG Tierhandelsgesellschaft Rodenbach, Hoe:BEAK (Beagle)) weighing 15-20 kg were used in all experiments.
(§1) At least 4 weeks prior the experiment the dogs had been equipped with miniaturized strain gage force transducers (T1-T2) (2×4 mm), sutured onto the gut at the locations mentioned below. The cables of the transducers were embedded into a cannula which carried the plug for external electric connection. This stainless steel cannula was implanted into the abdominal wall, close below the costal arch. Each transducer was connected to a measuring bridge. The signals were on-line stored using a HP 9835 A computer, thereby allowing later analysis of the data.
T1: Colon ascendens 10 cm aborafrom the ileoceval valve (ICV)
T2: Colon transversum 25 cm aborad from the ICV
18 hours prior to the experiment food was withdrawn from the animals, water ad libidum All experiments started between 08:00 and 09:00 am.
The following parameters were determined:
The duration of the cycle (min)
The duration of the colonic motor complex (CMC) (min)
The maximal height of the concentrations (AU: arbitrary units)
Data from the two recording sites (T1-T2) were pooled. […]
Statistical methods: For detection of significant differences (p<0.05) the unpaired t-test was used. Only significant differences were indicated by *.

[2] = test system: small intestine motility; assay: Small intestinal motility in the conscious dog, phase I and II activity; assay type: in vivo; conditions: for rank order of potency: spontaneous motility of small intestine, conscious dog
Description: as §1, with “Male dogs (THG Tierhandelsgesellschaft Rodenbach, Hoe: BEAK (Beagle)) weighing 15-20 kg were used in all experiments. At” for “At”, “prior to” for “prior”, “(T1-T3)” for “(T1-T2)”, “on line” for “on-line”, “computer,” for “computer, thereby”
(§2) 18 hours prior to the experiment food was withdrawn from the animals, water ad libidum. All experiments started between 08:00 and 09:00 am.
(§3) The following motility parameters were determined:
The integral under the concentration curves at 10 min intervals (mN×10min) as an index of phase I+II activity. The duration of drug action (min.)
(§4) The duration of the interdigestive migrating complex (IMC) (min) as a measure of phase III activity.
(§5) Test Compound II was given at doses of 0.2 and 0.5 mg/kg i.v. or 5 mg/kg i.g., dissolved in saline, in a volume of 1 ml/kg (i.v.) or 2 ml/kg (i.g.), n=3-6. Control n=26.
Reference substances: Buscopan, pitofenon.
Buscopan was given at doses of 0.3 and 1 mg/kg i.v., dissolved in saline, in a volume of 1 ml/kg, n=4-6. Pitofenone was given at doses of 1 mg/kg i.v., dissolved in saline, in a volume of 1 ml/kg, n=8.
1D50 -values were determined graphically.

[3] = cited from earlier work
[4] = test system: Porcine liver esterase; assay: Enzymatic hydrolysis rates by porcine liver esterase; assay type: in vitro ADME; conditions: 1 mM, pH 8.0, 37° C.
Description: Porcine liver esterase (0.5 U=2 μg) was preincubated in 40 mM Tris-HCl buffer, pH 8.0, at 37° C. for 5 min. The reaction was initiated with the addition of the test compound (final concentration, 1 mM) in the final volume of 250 μl. Enzyme reaction was terminated at different time intervals by the addition of 60 μl of 1M acetic acid. The solution was made alkaline (pH 10.5) by adding 0.4M NaOH and the alkaline solution was rapidly extracted (three times) with 2.5 ml of chloroform. An aliquot of the aqueous supernatant was diluted with double distilled water and the absorbance was measured at 290 nm. Amount of test compound III (molar extinction=14,400) formed was calculated.

[5] = test system: Guinea pig ileum; assay: Antispasmodic activity in isolated guinea pig ileum (acetylcholine contraction); assay type: cell-based; conditions: for Duration of action: isolated guinea pig ileum
Description: Small intestines obtained from freshly sacrificed guinea pigs (weight range, 200-400 g) of either sex were cleaned and stored in tyrode solution. A piece of ileum was mounted in an organ bath containing tyrode solution at 37° C. and maintained at a tension of 0.5 to 1.0 g. The solution was continuously aerated with compressed air. After an initial equilibration period, a sub-maximal dose of acetylcholine required for measurable contraction was standardized. Tension changes were monitored using an isotonic strain gauge attached to the tissue and the responses were recorded on a strip chart recorder. Antispasmodic activity of test compounds at different concentrations was followed and the IC50, values were calculated from dose response curves.

[6] = test system: sciatic nerve; assay: Conduction block anaesthesia in the rat, injection near sciatic nerve; assay type: in vivo; conditions: for blockade of nerve conduction: injected near the sciatic nerve, hydrochloride
Description: Conduction block anaesthesia was produced in the rat using compound II [(Isopropyl 2-(4-2-piperidinoethoxy)-benzoyl)benzoate hydrochloride] according to the method of Traunt. (Traunt, A. P. Arch. Int. Phamacodyn. 115:483-497,1957).
The conduction block produced was of long duration and required a number of days for complete recovery. A dose of 20 mg/kg compound II blocked nerve conduction in the rat for about 33 days. Ten mg/kg of compound II blocked the nerve for 18±2 days (n=25). In comparison, 10 mg/kg of lignocaine, a standard local anesthetic, produced conduction block for only 0.086±0.01 days (n-10). […] This long lasting but reversible blockade of nerve conduction is of significant interest in the treatment of cancers, neuralgias and post-surgical states.

[7] = test system: small intestine motility; assay: Small intestinal motility in the conscious dog, phase III activity, intragastrical; assay type: in vivo; conditions: 5 mg/kg intragastrically
Description: as §1, with “Male dogs (THG Tierhandelsgesellschaft Rodenbach, Hoe: BEAK (Beagle)) weighing 15-20 kg were used in all experiments. At” for “At”, “prior to” for “prior”, “(T1-T3)” for “(T1-T2)”, “on line” for “on-line”, “computer,” for “computer, thereby”
as §2, §3, §4, §5

Compound | rank order of potency [2] | μmol test compound III formed per mg protein per ml ([4]; time 0.0 hours) | μmol test compound III formed per mg protein per ml ([4]; time 0.5 hours) | μmol test compound III formed per mg protein per ml ([4]; time 2.0 hours) | μmol test compound III formed per mg protein per ml ([4]; time 3.5 hours) | Duration of action [5] | duration of nerve conduction block ([6]; 10 mg/kg near sciatic nerve) | further results
CCCC[N+]1(C)[C@@H]2C[C@@H](OC(=O)[C@H](CO)c3ccccc3)C[C@H]1[C@@H]1O[C@@H]12 (some centres unmarked) [Buscopan] | Test Compound II>buscopan>pitofenon | – | – | – | – | – | – | Max. height of CMC ([1]; 3 mg/kg intragastrically): 35 ± 17 AU; effect on colonic motility ([1]; 3 and 10 mg/kg i.g.): no effect on colonic motility; Duration of action ([2]; 1 mg/kg i.v., until postdrug values reached 90% or more of predrug): 30 min
COC(=O)c1ccccc1C(=O)c1ccc(OCCN2CCCCC2)cc1.Cl [Test compound I, Methyl-2-[4-(2-piperidino-ethoxy)-benzoyl]-benzoate hydrochloride] | Test Compound II>buscopan>pitofenon | 0.00 μmol per mg protein per ml | 0.50 μmol per mg protein per ml | 1.62 μmol per mg protein per ml | 2.78 μmol per mg protein per ml | < 1.5 min | – | antispasmodic activity ([3]; administered intravenously): potent antispasmodic activity; antispasmodic activity ([3]; administered orally): considerably reduced; metabolism of methyl ester to the corresponding acid ([3]; oral): rapid metabolism of the methyl ester to the corresponding acid; IC50 ([5]; Cavia porcellus, acetylcholine contraction, isolated ileum, 37° C.): 1 µg/mL
CC(C)OC(=O)c1ccccc1C(=O)c1ccc(OCCN2CCCCC2)cc1.Cl [Test compound II, Isopropyl-2-[4-(2-piperidino-ethoxy)-benzoyl]-benzoate hydrochloride] | Test Compound II>buscopan>pitofenon | 0.00 μmol per mg protein per ml | 0.05 μmol per mg protein per ml | 0.10 μmol per mg protein per ml | 0.10 μmol per mg protein per ml | > 7.0 min | 18 ± 2 days | duration of nerve conduction block ([6]; 20 mg/kg near sciatic nerve): about 33 days; blockade of nerve conduction ([6]; listed as Compound II): dose-dependent blockade of nerve conduction; blockade of nerve conduction ([6]; listed as compound II): reversible blockade of nerve conduction lasting for hours to days; effect on colonic motility ([1]; 1 mg/kg i.g.): uneffective; inhibition of colonic motility ([1]; 4 mg/kg i.g. (so in the source)): inhibited colonic motility (CMC in the conscious dog completely; inhibition of phase III activity [7]: a pronounced inhibition of phase III activity; duration of inhibitory effect ([2]; 0.5 mg/kg i.v.): approximately one
CCN(CC)CC(=O)Nc1c(C)cccc1C [lignocaine] | – | – | – | – | – | – | 0.086 ± 0.01 days | –
